Source: ChEMBL document CHEMBL1201862, “PubChem BioAssay data set” (2004)
Activity calls are given as the source filed them.

Legend:
Estrogen receptor = molecular target: T1, Estrogen receptor (Homo sapiens, UniProt P03372); assay: ERα coactivator recruitment enhancers – biochemical, TR-FRET, ERα LBD, dose response (AID 737)
T1 sequence (P03372 whole entry): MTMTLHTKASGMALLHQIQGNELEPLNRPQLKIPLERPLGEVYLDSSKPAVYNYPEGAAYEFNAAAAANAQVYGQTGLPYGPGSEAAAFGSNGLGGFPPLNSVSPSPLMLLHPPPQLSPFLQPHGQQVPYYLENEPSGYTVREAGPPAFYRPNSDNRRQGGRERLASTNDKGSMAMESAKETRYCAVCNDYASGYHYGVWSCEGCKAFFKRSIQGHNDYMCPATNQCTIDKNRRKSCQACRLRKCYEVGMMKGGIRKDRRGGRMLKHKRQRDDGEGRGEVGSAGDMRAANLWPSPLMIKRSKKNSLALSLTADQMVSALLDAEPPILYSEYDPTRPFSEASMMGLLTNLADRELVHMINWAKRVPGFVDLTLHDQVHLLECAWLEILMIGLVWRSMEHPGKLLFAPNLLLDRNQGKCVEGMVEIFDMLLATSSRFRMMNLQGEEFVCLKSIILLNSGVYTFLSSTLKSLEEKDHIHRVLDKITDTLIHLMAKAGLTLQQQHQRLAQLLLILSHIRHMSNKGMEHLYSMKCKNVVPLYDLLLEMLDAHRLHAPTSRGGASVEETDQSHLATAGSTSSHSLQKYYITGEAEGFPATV

[1] = molecular target: T2, Lytic switch protein BZLF1 (Epstein-Barr virus (strain B95-8) (HHV-4) (Human herpesvirus 4), UniProt P03206); assay: inhibition of BZLF1 ZTA DNA binding – biochemical, fluorescence polarization, Epstein-Barr virus, 1536-well, counter-screen for EBNA-1 inhibitor project, dose response (AID 2377); parameters: species or system human gammaherpesvirus 4;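 further: fluorescence polarization of Cy5-labelled ZRE DNA probe bound by purified Zta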
T2 sequence (P03206 whole entry): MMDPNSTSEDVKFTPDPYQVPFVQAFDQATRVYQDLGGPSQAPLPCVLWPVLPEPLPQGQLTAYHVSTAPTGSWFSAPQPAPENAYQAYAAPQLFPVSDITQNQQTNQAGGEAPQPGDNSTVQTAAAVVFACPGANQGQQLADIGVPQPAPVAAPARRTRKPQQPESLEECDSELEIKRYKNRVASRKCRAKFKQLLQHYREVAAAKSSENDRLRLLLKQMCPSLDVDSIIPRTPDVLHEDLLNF

[2] = molecular target: T3, Epstein-Barr nuclear antigen 1 (Epstein-Barr virus (strain B95-8) (HHV-4) (Human herpesvirus 4), UniProt P03211); assay: inhibition of EBV nuclear antigen 1 DNA binding – biochemical, fluorescence polarization, 1536-well, dose response (AID 2381); parameters: species or system human gammaherpesvirus 4;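 further: fluorescence polarization of a Cy5 DNA probe bound by EBNA-1 protein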
T3 sequence (P03211 whole entry): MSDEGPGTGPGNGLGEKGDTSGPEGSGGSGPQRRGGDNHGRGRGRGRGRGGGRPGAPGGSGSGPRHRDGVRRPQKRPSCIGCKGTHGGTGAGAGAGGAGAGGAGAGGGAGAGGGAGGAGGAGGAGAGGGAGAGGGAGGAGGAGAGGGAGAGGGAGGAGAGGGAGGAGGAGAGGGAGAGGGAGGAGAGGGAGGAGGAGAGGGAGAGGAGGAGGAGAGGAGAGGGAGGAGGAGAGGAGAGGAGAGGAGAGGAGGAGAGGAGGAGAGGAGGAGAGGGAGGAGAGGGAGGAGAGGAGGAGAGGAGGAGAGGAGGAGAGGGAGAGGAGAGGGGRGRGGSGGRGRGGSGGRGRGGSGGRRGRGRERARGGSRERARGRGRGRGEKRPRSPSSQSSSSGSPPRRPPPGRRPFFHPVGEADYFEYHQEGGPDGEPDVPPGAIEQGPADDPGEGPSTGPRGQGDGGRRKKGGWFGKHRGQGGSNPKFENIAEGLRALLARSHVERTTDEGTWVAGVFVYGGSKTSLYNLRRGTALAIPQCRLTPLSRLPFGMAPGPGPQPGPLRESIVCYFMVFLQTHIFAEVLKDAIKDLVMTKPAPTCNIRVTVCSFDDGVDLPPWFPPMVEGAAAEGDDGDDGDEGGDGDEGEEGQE

[3] = viability of HCT116 lacking mutant beta-catenin – cell-based, human colon tumor, dose response (AID 1045); type: functional;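 further: HCT116 colon tumor cells with beta catenin knocked out; cells exposed to compound for 60 hours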
Protein RecA = molecular target: T4, Protein RecA (Mycobacterium tuberculosis, UniProt P9WHJ3); assay: Fluorescence Cell-Free Homogeneous Dose Retest to Identify Inhibitors of RecA-Intein Splicing Activity. [Related pubchem assays (depositor defined):AID2097, AID2223, AID489010, AID492950]; type: functional
T4 sequence (P9WHJ3 whole entry): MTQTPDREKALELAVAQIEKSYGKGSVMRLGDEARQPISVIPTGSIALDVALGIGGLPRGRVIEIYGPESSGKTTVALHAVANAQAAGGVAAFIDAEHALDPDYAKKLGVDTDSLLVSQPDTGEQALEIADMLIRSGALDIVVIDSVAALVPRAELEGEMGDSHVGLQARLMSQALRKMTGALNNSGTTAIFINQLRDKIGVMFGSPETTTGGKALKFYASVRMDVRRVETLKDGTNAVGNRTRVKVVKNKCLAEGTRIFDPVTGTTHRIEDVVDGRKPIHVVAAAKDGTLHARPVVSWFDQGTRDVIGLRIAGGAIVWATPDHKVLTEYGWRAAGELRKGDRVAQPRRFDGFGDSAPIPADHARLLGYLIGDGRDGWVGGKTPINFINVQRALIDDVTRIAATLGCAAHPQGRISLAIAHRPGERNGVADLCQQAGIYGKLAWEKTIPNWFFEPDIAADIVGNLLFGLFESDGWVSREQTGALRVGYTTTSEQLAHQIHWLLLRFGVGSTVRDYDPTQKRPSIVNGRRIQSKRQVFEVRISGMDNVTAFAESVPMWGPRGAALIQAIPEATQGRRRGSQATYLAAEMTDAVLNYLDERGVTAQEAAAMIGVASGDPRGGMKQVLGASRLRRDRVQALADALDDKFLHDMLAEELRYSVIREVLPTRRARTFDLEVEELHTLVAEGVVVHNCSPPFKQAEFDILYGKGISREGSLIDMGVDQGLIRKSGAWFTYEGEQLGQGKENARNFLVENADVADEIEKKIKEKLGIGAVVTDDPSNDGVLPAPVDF

[4] = viability of PTEN-deleted HCT116 cells – cell-based, HCT116 PTEN knockout, dose response (AID 1047); type: functional;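 further: HCT116 colon tumor cells with PTEN knocked out; cells exposed to compound for 60 hours before readout; potency for loss of cell viability measured by luminescence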
[5] = molecular target: T5, Replicative DNA helicase DnaB (Mycobacterium tuberculosis, UniProt P9WMR3); assay: DnaB intein splicing inhibitors, dose response, biochemical, cell-free fluorescence (AID 449749); type: functional
T5 sequence (P9WMR3 whole entry): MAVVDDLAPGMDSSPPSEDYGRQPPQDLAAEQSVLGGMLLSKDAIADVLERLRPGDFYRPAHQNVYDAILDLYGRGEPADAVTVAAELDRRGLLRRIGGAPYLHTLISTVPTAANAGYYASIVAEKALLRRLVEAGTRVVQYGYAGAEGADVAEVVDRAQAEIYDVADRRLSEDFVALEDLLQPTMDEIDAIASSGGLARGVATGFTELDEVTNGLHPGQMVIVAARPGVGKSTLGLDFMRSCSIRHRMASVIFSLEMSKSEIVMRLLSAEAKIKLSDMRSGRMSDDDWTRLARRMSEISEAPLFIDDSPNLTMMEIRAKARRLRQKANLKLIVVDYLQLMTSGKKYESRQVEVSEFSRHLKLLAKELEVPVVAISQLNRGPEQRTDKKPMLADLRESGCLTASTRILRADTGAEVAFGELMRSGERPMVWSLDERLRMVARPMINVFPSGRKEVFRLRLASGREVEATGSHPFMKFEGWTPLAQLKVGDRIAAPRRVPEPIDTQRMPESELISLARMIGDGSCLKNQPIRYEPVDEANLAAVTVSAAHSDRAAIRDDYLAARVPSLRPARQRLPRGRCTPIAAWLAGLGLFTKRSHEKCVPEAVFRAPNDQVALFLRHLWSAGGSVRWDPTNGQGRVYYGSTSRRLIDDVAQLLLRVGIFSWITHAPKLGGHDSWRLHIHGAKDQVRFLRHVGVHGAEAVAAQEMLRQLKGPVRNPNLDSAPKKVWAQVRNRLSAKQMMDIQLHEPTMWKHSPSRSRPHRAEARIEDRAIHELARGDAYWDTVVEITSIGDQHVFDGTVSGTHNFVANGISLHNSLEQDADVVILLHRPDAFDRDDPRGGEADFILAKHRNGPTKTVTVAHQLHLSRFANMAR

[6] = viability loss in THP-1 monocytes – THP-1 cells, cytotoxicity control for Vif-APOBEC3G degradation inhibitor project, dose response (AID 1117359); type: functional; conditions: THP-1
[7] = molecular target: T6, Polyadenylate-binding protein 1 (Homo sapiens, UniProt P11940); assay: MLLE domain peptide-binding blockers, IC50 – biochemical, fluorescence polarization, FITC-PAM2 peptide, dose response (AID 602259); type: functional; conditions: read-out: IC50_Mean
[8] = molecular target: T6, Polyadenylate-binding protein 1; assay: MLLE binding blockers, Cy5 peptide tracer – biochemical, fluorescence polarization, Cy5-PAM2 peptide, secondary, miRNA deadenylation inhibitor project, dose response (AID 602260); type: functional; conditions: read-out: IC50_Mean
[9] = HIV-1 Vif–A3G interaction blockers – biochemical, TR-FRET, GST-Vif 1-94, biotin-A3G peptide, dose response retest, primary screen (AID 1117319); type: functional;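 further: TR-FRET signal of purified GST-Vif binding a biotinylated A3G peptide; inhibitors lower the FRET signal by blocking Vif and A3G binding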
[10] = molecular target: FAD-linked sulfhydryl oxidase ALR (Homo sapiens, UniProt P55789); assay: ALR-catalysed DTT oxidation blockers – biochemical, H2O2 detection, luminescence, cherry-pick, dose response (AID 493248)
Protein Tat = molecular target: T7, Protein Tat (Human immunodeficiency virus type 1 group M subtype B (isolate HXB2)(HIV-1), UniProt P04608); type: functional;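 further: tat binding to TAR RNA read out by fluorescence polarization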
T7 sequence (P04608 whole entry): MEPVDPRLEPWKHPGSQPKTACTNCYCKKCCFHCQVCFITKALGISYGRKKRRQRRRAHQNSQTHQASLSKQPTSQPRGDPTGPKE

[11] = toxicity to human HepG2 hepatoma cells – cell-based, plate reader, dry powder samples, cytotoxicity control, dose response (AID 1159569); type: functional;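 further: inhibitor potency with signal falling toward the positive control level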
[12] = P. falciparum Dd2 growth inhibitors, dose response, SYBR Green, cherry-picked samples (AID 1159567); type: functional, cell-based
[13] = growth inhibition of yeast DHODH-expressing 3D7 parasites – SYBR Green, dry powder samples, dose response (AID 1159570); type: functional, cell-based;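 further: parasite growth measured after 72 hours of compound exposure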
[14] = growth inhibition of PfATP4-mutant resistant parasites – NITD609-resistant line, SYBR Green, dry powder, dose response (AID 1159571); type: functional, cell-based;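 further: parasites synchronized at ring stage by sorbitol before testing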
[15] = Dd2 malaria parasite growth inhibition potency – SYBR Green, dry powder samples, dose response (AID 1159566); type: functional, cell-based;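 further: potency for growth inhibition with lower SYBR green DNA signal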
[16] = toxicity to human hepatoma HepG2 cells – cell-based, cherry-picked samples, cytotoxicity control, dose response (AID 1159577); type: functional
Estrogen receptor beta [17] = molecular target: T8, Estrogen receptor beta (Homo sapiens, UniProt Q92731);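 further: recombinant ER-beta bound to coactivator SRC1 peptide in presence of estradiol agonist; inhibitors block coactivator peptide binding and lower the FRET signal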
[18] = molecular target: T9, Carboxy-terminal domain RNA polymerase II polypeptide A small phosphatase 1 (Homo sapiens, UniProt Q9GZU7); assay: CTDSP1 inhibitors, concentration-response, biochemical, absorbance readout, ultra-high-throughput screen actives (AID 540297); type: functional
T9 sequence (Q9GZU7 whole entry): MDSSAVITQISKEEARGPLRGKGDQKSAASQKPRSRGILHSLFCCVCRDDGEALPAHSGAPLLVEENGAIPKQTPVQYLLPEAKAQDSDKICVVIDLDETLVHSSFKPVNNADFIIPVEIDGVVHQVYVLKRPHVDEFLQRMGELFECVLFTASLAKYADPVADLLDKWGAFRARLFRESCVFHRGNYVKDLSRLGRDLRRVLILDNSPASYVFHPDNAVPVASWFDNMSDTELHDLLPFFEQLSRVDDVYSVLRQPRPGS

Estrogen receptor beta [19] = molecular target: T8, Estrogen receptor beta; assay: blockers of SRC-3 recruitment to ERβ – biochemical, ELISA, streptavidin-HRP readout, orthogonal assay, confirmation (AID 1060)

T8 sequence (Q92731 whole entry, the tested form may be a part): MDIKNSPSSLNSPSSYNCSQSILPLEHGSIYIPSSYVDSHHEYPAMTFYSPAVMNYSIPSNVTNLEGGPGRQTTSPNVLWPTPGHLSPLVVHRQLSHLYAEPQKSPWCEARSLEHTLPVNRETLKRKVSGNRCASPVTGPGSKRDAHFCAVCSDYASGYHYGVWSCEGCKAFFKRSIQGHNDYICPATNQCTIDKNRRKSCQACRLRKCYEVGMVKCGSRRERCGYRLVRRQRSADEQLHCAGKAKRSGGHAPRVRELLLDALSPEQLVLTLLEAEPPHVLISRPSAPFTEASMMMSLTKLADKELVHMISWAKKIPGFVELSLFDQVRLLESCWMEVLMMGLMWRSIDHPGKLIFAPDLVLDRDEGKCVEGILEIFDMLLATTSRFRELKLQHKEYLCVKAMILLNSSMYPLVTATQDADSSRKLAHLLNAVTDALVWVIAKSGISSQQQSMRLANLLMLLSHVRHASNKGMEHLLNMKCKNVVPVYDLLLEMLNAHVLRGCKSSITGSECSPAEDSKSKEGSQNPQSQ
T6 sequence (P11940 whole entry, the tested form may be a part): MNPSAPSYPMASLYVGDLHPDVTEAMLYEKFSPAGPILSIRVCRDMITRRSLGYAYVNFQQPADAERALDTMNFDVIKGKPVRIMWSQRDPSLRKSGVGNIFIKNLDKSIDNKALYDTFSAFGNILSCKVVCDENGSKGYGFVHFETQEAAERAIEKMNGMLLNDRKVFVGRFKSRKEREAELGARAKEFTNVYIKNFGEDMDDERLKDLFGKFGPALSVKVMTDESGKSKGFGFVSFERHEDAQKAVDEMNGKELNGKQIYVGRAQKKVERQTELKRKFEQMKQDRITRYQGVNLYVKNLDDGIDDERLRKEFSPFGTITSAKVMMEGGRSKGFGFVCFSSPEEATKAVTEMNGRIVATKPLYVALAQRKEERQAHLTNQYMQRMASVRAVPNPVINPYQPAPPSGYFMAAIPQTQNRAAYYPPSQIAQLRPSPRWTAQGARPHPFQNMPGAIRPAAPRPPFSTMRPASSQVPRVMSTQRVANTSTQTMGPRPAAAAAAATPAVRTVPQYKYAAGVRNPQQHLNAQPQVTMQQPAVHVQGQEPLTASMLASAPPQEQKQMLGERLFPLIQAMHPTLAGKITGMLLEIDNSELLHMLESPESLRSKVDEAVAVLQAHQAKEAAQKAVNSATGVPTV
Sequence of FAD-linked sulfhydryl oxidase ALR (P55789 whole entry): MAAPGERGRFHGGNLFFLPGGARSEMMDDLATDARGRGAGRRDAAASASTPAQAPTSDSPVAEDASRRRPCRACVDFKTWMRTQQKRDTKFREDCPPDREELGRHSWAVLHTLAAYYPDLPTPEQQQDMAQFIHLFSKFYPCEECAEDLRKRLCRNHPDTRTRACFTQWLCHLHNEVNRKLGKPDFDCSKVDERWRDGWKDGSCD

C[C@]12CC[C@@H]3c4ccc(O)cc4[C@@H](O)C[C@H]3[C@@H]1CC[C@@H]2O
EC50 (Estrogen receptor): 12.7 µM (active)

CSc1ccccc1NC(=O)Cn1nnc(-c2ccc(S(C)(=O)=O)cc2)n1
IC50 [1]: > 111 µM (not active)
IC50 [2]: 6.17 µM (active)

O=[N+]([O-])c1c(NCCCO)cc(SCc2ccco2)c2nonc12
EC50 [3]: 18 µM (active)
EC50 (Protein RecA): 5.64 µM (active)
EC50 [4]: 27.1 µM (active)
AC50 [5]: 57.7 µM (active)
CC50 [6]: > 40 µM (active)
IC50 [7]: > 66 µM (inactive)
IC50 [8]: > 66 µM (inactive)

COc1ccc(S(=O)(=O)Cc2ccc(C(=O)N3CCN(c4ccccc4)CC3)o2)cc1
IC50 [9]: > 100 µM (active)
AC50 [10]: 19.1 µM (active)
IC50 (Protein Tat): > 100 µM (active)

COc1ccc(Cc2nnc(NC(=O)Nc3ccccc3F)s2)cc1OC
IC50 [1]: > 111 µM (not active)
IC50 [2]: 6.66 µM (active)

CCc1nnc(NC(=O)CSc2ccc(-c3nc4ccccc4[nH]3)cn2)s1
IC50 [1]: > 111 µM (not active)
IC50 [2]: 17.1 µM (not active)

C[C@@H]1CN([C@@H](C)CO)C(=O)Cc2cc(NC(=O)Nc3ccc(C(F)(F)F)cc3)ccc2O[C@H]1CN(C)Cc1ccc(-c2ccccc2)cc1
AC50 [11]: 19.3 µM (active)
AC50 [12]: 1.8 µM (active)
AC50 [13]: 1.09 µM (active)
AC50 [14]: 1.83 µM (active)
AC50 [15]: 1.11 µM (active)
AC50 [16]: 21.4 µM (active)

COc1ccc(C(=O)OCC(=O)c2c(N)n(C)c(=O)n(C)c2=O)cc1OC
IC50 [9]: > 100 µM (active)

CCC(C(=O)Nc1cc(C(=O)O)ccc1C)c1ccccc1 (stereo unspecified)
CC50 [6]: > 40 µM (active)

CCOC(=O)C(C)Oc1cccc2c(=O)n(CC(=O)Nc3ccc4c(c3)OCCO4)ccc12 (stereo unspecified)
EC50 (Estrogen receptor): 12.6 µM (not active)

Sc1nnc(-c2cc(-c3ccco3)[nH]n2)n1-c1ccccc1Cl
IC50 (Estrogen receptor beta [17]): > 50 µM (not active)
IC50 [18]: 5.55 µM (active)
IC50 (Estrogen receptor beta [19]): > 109 µM (not active)

Cc1ccc(-n2c(C)cc(C(=O)OCC(=O)N(CC(C)C)C3CCS(=O)(=O)C3)c2C)cc1 (stereo unspecified)
IC50 [9]: > 100 µM (active)
IC50 (Protein Tat): > 100 µM (active)

C[C@H](CO)N1C[C@H](C)[C@@H](CN(C)C(=O)c2ccccc2F)Oc2ncc(C#Cc3cccc(F)c3)cc2C1=O
AC50 [11]: 39.9 µM (active)
AC50 [12]: 1.97 µM (active)
AC50 [13]: 3.17 µM (active)
AC50 [14]: 2.1 µM (active)
AC50 [15]: 1.63 µM (active)
